# PMC2988090 (Nature, 2010)
# Entries after “also recorded” stand apart in the source; their conditions may differ.
# Biological target: T1, dialyzed COI1-ASK1 in the presence of JAZ1 (Arabidopsis thaliana, UniProt O04197+Q9LMA8)
# T1 sequence (O04197 1-592): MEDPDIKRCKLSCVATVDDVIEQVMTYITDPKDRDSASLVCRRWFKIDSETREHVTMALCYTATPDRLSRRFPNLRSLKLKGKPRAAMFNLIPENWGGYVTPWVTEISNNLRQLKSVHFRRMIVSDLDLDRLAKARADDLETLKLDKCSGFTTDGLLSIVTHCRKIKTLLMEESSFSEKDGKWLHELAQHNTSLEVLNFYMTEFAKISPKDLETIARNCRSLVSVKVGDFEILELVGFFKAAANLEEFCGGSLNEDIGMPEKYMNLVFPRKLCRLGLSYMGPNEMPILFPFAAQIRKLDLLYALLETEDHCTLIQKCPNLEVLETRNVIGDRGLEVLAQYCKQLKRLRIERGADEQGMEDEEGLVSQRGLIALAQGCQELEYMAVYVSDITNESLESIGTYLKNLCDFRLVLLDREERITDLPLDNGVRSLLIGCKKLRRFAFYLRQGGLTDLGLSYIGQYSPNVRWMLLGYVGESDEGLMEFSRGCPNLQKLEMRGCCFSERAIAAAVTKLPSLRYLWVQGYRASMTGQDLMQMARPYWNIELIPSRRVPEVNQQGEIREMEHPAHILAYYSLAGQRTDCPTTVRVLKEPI
# T1 sequence (Q39255 1-160 partner): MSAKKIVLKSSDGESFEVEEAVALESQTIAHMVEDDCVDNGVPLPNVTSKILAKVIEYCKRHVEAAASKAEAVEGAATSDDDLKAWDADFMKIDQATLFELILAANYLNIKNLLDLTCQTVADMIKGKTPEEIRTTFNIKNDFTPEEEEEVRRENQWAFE
# T1 sequence (Q9LMA8 1-253): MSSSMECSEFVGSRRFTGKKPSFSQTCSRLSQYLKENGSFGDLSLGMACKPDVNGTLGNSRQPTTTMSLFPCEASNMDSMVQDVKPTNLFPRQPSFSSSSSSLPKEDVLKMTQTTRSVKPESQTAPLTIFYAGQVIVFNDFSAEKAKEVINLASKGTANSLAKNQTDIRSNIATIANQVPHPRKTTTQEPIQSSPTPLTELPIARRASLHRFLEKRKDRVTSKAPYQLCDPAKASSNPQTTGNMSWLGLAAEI
# Assay: inositol phosphate reconstitution assay
# Type: binding
# Conditions: dialyzed COI1, 100 nM ^3H-coronatine, 1 µM inositol phosphate
row,SMILES,support of COI1-JAZ1 co-receptor ligand binding activity
1,"O=P(O)(O)OC1C(OP(=O)(O)O)C(OP(=O)(O)O)C(OP(=O)(O)O)C(OP(=O)(O)O)C1OP(=O)(O)O (stereo not drawn) [InsP6, inositol hexakisphosphate]",not favorable for activity
2,"O=P(O)(O)O[C@@H]1[C@H](O)[C@H](O)[C@@H](OP(=O)(O)O)[C@H](OP(=O)(O)O)[C@H]1O [inositol (1,4,5) triphosphate]",does not
3,"O=P(O)(O)O[C@H]1[C@H](OP(=O)(O)O)[C@@H](OP(=O)(O)O)[C@@H](O)[C@@H](O)[C@@H]1OP(=O)(O)O [inositol (1,4,5,6) tetrakisphosphate]",supports the activity; also recorded: support high affinity hormone binding
